Assay results published in ChEMBL document CHEMBL1124516, “Synthesis of 2,3-diaziridinyl-1,4-naphthoquinone sulfonate derivatives as potential antineoplastic agents” (1989).

Assays:
Mus musculus [1] = test: Average change in weight in mice bearing the L1210 Leukemia, when compound (10 mg/kg) was administered beginning 24 hr after tumor implantation, daily once for 6 consecutive days.; assay type: functional
Mus musculus [2] = test: Average change in weight in mice bearing the L1210 Leukemia, when compound (5 mg/kg) was administered beginning 24 hr after tumor implantation, daily once for 6 consecutive days.; assay type: functional
Mus musculus [3] = test: Average change in weight in mice bearing the L1210 Leukemia, when compound (15 mg/kg) was administered beginning 24 hr after tumor implantation, daily once for 6 consecutive days.; assay type: functional
Mus musculus [4] = test: The ratio of the survival time of treated to control animals x 100 in mice bearing L1210 Leukemia, when compound (10 mg/kg) was administered intraperitoneally; assay type: functional
Mus musculus [5] = test: The ratio of the survival time of treated to control animals x 100 in mice bearing L1210 Leukemia, when compound (15 mg/kg) was administered intraperitoneally; assay type: functional
Mus musculus [6] = test: The ratio of the survival time of treated to control animals x 100 in mice bearing L1210 leukemia, when compound (5 mg/kg) was administered intraperitoneally; assay type: functional
Mus musculus [7] = test: Number of mice survived for a period of greater than 50 days when a dose of 10 mg/kg is administered intraperitoneally; tested in 5 mice; assay type: functional; settings: route intraperitoneal
Mus musculus [8] = test: Number of mice survived for a period of greater than 50 days when a dose of 15 mg/kg is administered intraperitoneally; tested in 5 mice; assay type: functional; settings: route intraperitoneal
Mus musculus [9] = test: Number of mice survived for a period of greater than 50 days when a dose of 5 mg/Kg is administered intraperitoneally; tested in 5 mice; assay type: functional
Mus musculus [10] = test: Average change in weight in mice bearing the B16 Melanoma, when compound(50 mg/kg) was administered intraperitoneally beginning 24 hr after tumor implantation, daily once for 6 consecutive days.; assay type: functional
Mus musculus [11] = test: Average change in weight in mice bearing the L1210 Leukemia, when compound (20 mg/kg) was administered once daily beginning 24 hr after tumor implantation, for 6 consecutive days.; assay type: functional
Mus musculus [12] = test: Average change in weight in mice bearing the L1210 Leukemia, when compound (25 mg/kg) was administered once daily beginning 24 hr after tumor implantation, for 6 consecutive days.; assay type: functional
Mus musculus [13] = test: Average change in weight in mice bearing the L1210 Leukemia, when compound(30 mg/kg) was administered once daily beginning 24 hr after tumor implantation, for 6 consecutive days.; assay type: functional
Mus musculus [14] = test: Average change in weight in mice bearing the B16 Melanoma, when compound(150 mg/kg) was administered beginning 24 hr after tumor implantation, daily once for 6 consecutive days.; assay type: functional
Mus musculus [15] = test: Average change in weight in mice bearing the B16 Melanoma, when compound(100 mg/kg) was administered beginning 24 hr after tumor implantation, daily once for 6 consecutive days.; assay type: functional
Mus musculus [16] = test: The ratio of the survival time of treated to control animals x 100 in mice bearing B16 Melanoma, when compound (100 mg/kg) was administered intraperitoneally; assay type: functional
Mus musculus [17] = test: The ratio of the survival time of treated to control animals x 100 in mice bearing B16 Melanoma, when compound (150 mg/kg) was administered intraperitoneally; assay type: functional
Mus musculus [18] = test: The ratio of the survival time of treated to control animals x 100 in mice bearing B16 Melanoma, when compound (50 mg/kg) was administered intraperitoneally; assay type: functional
L1210 [19] = test: Percentage survival time of L1210 (murine leukemia) inoculated mice following 30 mg/kg i.p.; assay type: functional, Mus musculus; settings: route intraperitoneal
Mus musculus [20] = test: Survival of mice bearing B16 melanoma cells greater than 50 days when treated with a dose of 100 mg/Kg administered intraperitoneally; tested in 5 mice; assay type: functional
Mus musculus [21] = test: Survival of mice bearing B16 melanoma cells greater than 50 days when treated with a dose of 150 mg/Kg administered intraperitoneally; tested in 5 mice; assay type: functional
Mus musculus [22] = test: Survival of mice bearing B16 melanoma cells greater than 50 days when treated with a dose of 50 mg/Kg administered intraperitoneally; tested in 5 mice; assay type: functional
Mus musculus [23] = test: Number of mice surviving for a period greater than 50 days when a dose of 30 mg/Kg is administered intraperitoneally; tested in 5 mice; assay type: functional
Mus musculus [24] = test: Number of mice survived for a period greater than 50 days when a dose of 20 mg/Kg is administered intraperitoneally; tested in 5 mice; assay type: functional
L1210 [25] = test: Number L1210 (murine leukemia) inoculated mice surviving for >50 days following 25 mg/kg i.p.; assay type: functional, Mus musculus; settings: route intraperitoneal
L1210 [26] = test: Percentage survival time of L1210 (murine leukemia) inoculated mice following 25 mg/kg i.p.; assay type: functional, Mus musculus; settings: route intraperitoneal
L1210 [27] = test: Percentage survival time of L1210 (murine leukemia) inoculated mice following 20 mg/kg i.p.; assay type: functional, Mus musculus; settings: route intraperitoneal
Mus musculus [28] = test: Average change in weight in mice bearing the B16 Melanoma, when compound(3 mg/kg) was administered beginning 24 hr after tumor implantation, daily once for 6 consecutive days.; assay type: functional
Mus musculus [29] = test: Average change in weight in mice bearing the L1210 Leukemia, when compound (3 mg/kg) was administered beginning 24 hr after tumor implantation, daily once for 6 consecutive days.; assay type: functional
Mus musculus [30] = test: The ratio of the survival time of treated to control animals x 100 in mice bearing B16 Melanoma, when compound (3 mg/kg) was administered intraperitoneally; assay type: functional
Mus musculus [31] = test: The ratio of the survival time of treated to control animals x 100 in mice bearing L1210 leukemia, when compound (3 mg/kg) was administered intraperitoneally; assay type: functional
Mus musculus [32] = test: Survival of mice bearing B16 melanoma cells greater than 50 days when treated with a dose of 3 mg/Kg administered intraperitoneally; tested in 5 mice; assay type: functional
Mus musculus [33] = test: Number of mice survived for a period of greater than 50 days when a dose of 3 mg/Kg is administered intraperitoneally; tested in 5 mice; assay type: functional

Row | SMILES | Average body weight change (Mus musculus [10]) | Average change in body weight (Mus musculus [11]) | Average body weight change (Mus musculus [12]) | Average change in body weight (Mus musculus [13]) | Average change in body weight (Mus musculus [14]) | Average change in body weight (Mus musculus [15]) | Activity (Mus musculus [16]) | Activity (Mus musculus [17]) | Activity (Mus musculus [18]) | Activity (L1210 [19]) | Survivals (Mus musculus [20]) | Survivals (Mus musculus [21]) | Survivals (Mus musculus [22]) | Survivals (Mus musculus [23]) | Survivals (Mus musculus [24]) | Survivals (L1210 [25]) | further results
1 | O=C1C(N2CC2)=CC(=O)c2c(O)cccc21 | – | – | – | – | – | – | – | – | – | – | – | – | – | – | – | – | Average weight (Mus musculus [1]): 5.1%; Average weight (Mus musculus [2]): 12.7%; Average weight (Mus musculus [3]): 2.1%; Activity (Mus musculus [4]): 94; Activity (Mus musculus [5]): 90; Activity (Mus musculus [6]): 231; Survival (Mus musculus [7]): 0; Survival (Mus musculus [8]): 0; Survival (Mus musculus [9]): 0
2 | O=C1C(N2CC2)=C(N2CC2)C(=O)c2c(OS(=O)(=O)c3ccccc3)cccc21 | -1.3% | -6.2% | -8.3% | -7% | -13.5% | -12.3% | 180 | 148 | 156 | 359 | 0 | 0 | 0 | 4 | 5 | 5 | –
3 | O=C1C(N2CC2)=C(N2CC2)C(=O)c2c(OS(=O)(=O)c3ccc(Cl)cc3)cccc21 | 1.1% | 4.2% | 1.7% | -2.7% | -3.2% | -2.5% | 153 | 178 | 143 | 167 | 0 | 0 | 0 | 3 | 0 | 0 | Activity (L1210 [26]): 200; Activity (L1210 [27]): 161
4 | CCOC(=O)NC1=C(N2CC2)C(=O)C(NC(=O)OCC)=C(N2CC2)C1=O [DIAZIQUONE] | – | – | – | – | – | – | – | – | – | – | – | – | – | – | – | – | Average weight (Mus musculus [28]): -13.8%; Average weight (Mus musculus [29]): -11.7%; Activity (Mus musculus [30]): 147; Activity (Mus musculus [31]): 231; Survivals (Mus musculus [32]): 0; Survivals (Mus musculus [33]): 0
